# Test results taken from publication PMC6409085, “Three odorant-binding proteins are involved in the behavioral response of Sogatella furcifera to rice plant volatiles” (PeerJ, 2019).
# Where “and” joins values, the source holds several entries; their conditions need not be identical. Equal values may be shown once.
# Legend:
# SfurOBP1 = SfurOBP1 (Sogatella furcifera, UniProt V5T8N5); experiment: biochemical; type: binding; details: for Fluorescence competitive binding assay, fluorescence intensity: OBP1, three replicate columns
# Sequence of SfurOBP1 (V5T8N5 entry or part of it): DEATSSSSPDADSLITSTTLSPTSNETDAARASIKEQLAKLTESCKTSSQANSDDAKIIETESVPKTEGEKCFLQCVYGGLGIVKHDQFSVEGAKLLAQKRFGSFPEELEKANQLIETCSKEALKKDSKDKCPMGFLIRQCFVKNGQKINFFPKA
# Summary of the method: (§1)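 K1-NPN came from titrating 2.0 µM protein (50 mM Tris-HCl, pH 7.4) with 1-NPN. Odorants at 2-20 µM then competed against 2.0 µM protein plus 2.0 µM 1-NPN for 2 min, with excitation at 337 nm and emission recorded over 390-490 nm. IC50 values were converted to Ki via Ki = IC50/(1 + [1-NPN]/K1-NPN).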
# SfurOBP11 = SfurOBP11 (Sogatella furcifera, UniProt V5T6E3); experiment: biochemical; type: binding
# Sequence of SfurOBP11 (V5T6E3 entry or part of it): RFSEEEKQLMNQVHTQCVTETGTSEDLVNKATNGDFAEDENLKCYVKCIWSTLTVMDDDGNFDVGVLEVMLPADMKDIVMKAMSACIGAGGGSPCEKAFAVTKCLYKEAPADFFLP
# Summary of the method: as §1
# SfurOBP2 = SfurOBP2 (Sogatella furcifera, UniProt V5T759); experiment: biochemical; type: binding
# Sequence of SfurOBP2 (V5T759 entry or part of it): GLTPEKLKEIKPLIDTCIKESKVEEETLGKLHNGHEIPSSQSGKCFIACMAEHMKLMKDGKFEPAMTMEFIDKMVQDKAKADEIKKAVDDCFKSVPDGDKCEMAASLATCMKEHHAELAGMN
# Summary of the method: as §1
# SfurOBP3 = SfurOBP3 (Sogatella furcifera, UniProt V5T818); experiment: biochemical; type: binding; details: for Fluorescence competitive binding assay, fluorescence intensity: OBP3, three replicate columns
# Sequence of SfurOBP3 (V5T818 entry or part of it): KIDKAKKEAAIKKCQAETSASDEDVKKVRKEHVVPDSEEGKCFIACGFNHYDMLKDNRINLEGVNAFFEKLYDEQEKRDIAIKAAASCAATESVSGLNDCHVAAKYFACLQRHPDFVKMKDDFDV
# Summary of the method: as §1
# S. furcifera adults = experiment: Y-tube olfactometer behavioral trials; type: in vivo, Sogatella furcifera; details: odorant 50 µL/L vs hexane; adults
# Summary of the method: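 Single S. furcifera adults (2 days post-emergence, starved 0.5 h) chose between odorant (100 µL of 50 µL/L on filter paper) and hexane control in a glass Y-tube, charcoal-filtered humidified air 300 mL/min per arm, 25 ± 1 °C, 50% RH. Choice scored if insect passed half an arm and stayed >1 min within 10 min; 45 insects per compound, chi-squared test.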
smiles,measurement,setting,value
COC(=O)c1ccccc1 [benzoic acid methylester],IC50,SfurOBP1,> 20 µM
same,"Fluorescence competitive binding assay, fluorescence intensity",SfurOBP1; ligand concentration 2 (μM),5064 and 4951 and 5158
same,"Fluorescence competitive binding assay, fluorescence intensity",SfurOBP1; ligand concentration 4 (μM),5979 and 6427 and 5531
same,"Fluorescence competitive binding assay, fluorescence intensity",SfurOBP1; ligand concentration 6 (μM),9023 and 8678 and 7700
same,"Fluorescence competitive binding assay, fluorescence intensity",SfurOBP1; ligand concentration 8 (μM),8709 and 6440 and 6910
same,"Fluorescence competitive binding assay, fluorescence intensity",SfurOBP1; ligand concentration 10 (μM),7708 and 6333 and 7083
same,"Fluorescence competitive binding assay, fluorescence intensity",SfurOBP1; ligand concentration 12 (μM),5895 and 6787 and 5523
same,"Fluorescence competitive binding assay, fluorescence intensity",SfurOBP1; ligand concentration 14 (μM),8915 and 6017 and 4981
same,"Fluorescence competitive binding assay, fluorescence intensity",SfurOBP1; ligand concentration 16 (μM),7008 and 5157 and 5392
same,"Fluorescence competitive binding assay, fluorescence intensity",SfurOBP1; ligand concentration 18 (μM),7131 and 8076 and 6232
same,"Fluorescence competitive binding assay, fluorescence intensity",SfurOBP1; ligand concentration 20 (μM),6422 and 6546 and 6873
same,IC50,SfurOBP11,> 20 µM
same,"Fluorescence intensity, fluorescence competitive binding assay, OBP11","SfurOBP11; ligand concentration 2, replicate 1",27311
same,"Fluorescence intensity, fluorescence competitive binding assay, OBP11","SfurOBP11; ligand concentration 2, replicate 2",29257
same,"Fluorescence intensity, fluorescence competitive binding assay, OBP11","SfurOBP11; ligand concentration 2, replicate 3",28341
same,"Fluorescence intensity, fluorescence competitive binding assay, OBP11","SfurOBP11; ligand concentration 4, replicate 1",28195
same,"Fluorescence intensity, fluorescence competitive binding assay, OBP11","SfurOBP11; ligand concentration 4, replicate 2",27454
same,"Fluorescence intensity, fluorescence competitive binding assay, OBP11","SfurOBP11; ligand concentration 4, replicate 3",28935
same,"Fluorescence intensity, fluorescence competitive binding assay, OBP11","SfurOBP11; ligand concentration 6, replicate 1",25204
same,"Fluorescence intensity, fluorescence competitive binding assay, OBP11","SfurOBP11; ligand concentration 6, replicate 2",26496
same,"Fluorescence intensity, fluorescence competitive binding assay, OBP11","SfurOBP11; ligand concentration 6, replicate 3",27787
same,"Fluorescence intensity, fluorescence competitive binding assay, OBP11","SfurOBP11; ligand concentration 8, replicate 1",24731
same,"Fluorescence intensity, fluorescence competitive binding assay, OBP11","SfurOBP11; ligand concentration 8, replicate 2",24972
same,"Fluorescence intensity, fluorescence competitive binding assay, OBP11","SfurOBP11; ligand concentration 8, replicate 3",24489
same,"Fluorescence intensity, fluorescence competitive binding assay, OBP11","SfurOBP11; ligand concentration 10, replicate 1",24285
same,"Fluorescence intensity, fluorescence competitive binding assay, OBP11","SfurOBP11; ligand concentration 10, replicate 2",24217
same,"Fluorescence intensity, fluorescence competitive binding assay, OBP11","SfurOBP11; ligand concentration 10, replicate 3",24352
same,"Fluorescence intensity, fluorescence competitive binding assay, OBP11","SfurOBP11; ligand concentration 12, replicate 1",23537
same,"Fluorescence intensity, fluorescence competitive binding assay, OBP11","SfurOBP11; ligand concentration 12, replicate 2",23314
same,"Fluorescence intensity, fluorescence competitive binding assay, OBP11","SfurOBP11; ligand concentration 12, replicate 3",23760
same,"Fluorescence intensity, fluorescence competitive binding assay, OBP11","SfurOBP11; ligand concentration 14, replicate 1",19900
same,"Fluorescence intensity, fluorescence competitive binding assay, OBP11","SfurOBP11; ligand concentration 14, replicate 2",22587
same,"Fluorescence intensity, fluorescence competitive binding assay, OBP11","SfurOBP11; ligand concentration 14, replicate 3",21306
same,"Fluorescence intensity, fluorescence competitive binding assay, OBP11","SfurOBP11; ligand concentration 16, replicate 1",18401
same,"Fluorescence intensity, fluorescence competitive binding assay, OBP11","SfurOBP11; ligand concentration 16, replicate 2",18544
same,"Fluorescence intensity, fluorescence competitive binding assay, OBP11","SfurOBP11; ligand concentration 16, replicate 3",17724
same,"Fluorescence intensity, fluorescence competitive binding assay, OBP11","SfurOBP11; ligand concentration 18, replicate 1",22003
same,"Fluorescence intensity, fluorescence competitive binding assay, OBP11","SfurOBP11; ligand concentration 18, replicate 2",20975
same,"Fluorescence intensity, fluorescence competitive binding assay, OBP11","SfurOBP11; ligand concentration 18, replicate 3",22765
same,"Fluorescence intensity, fluorescence competitive binding assay, OBP11","SfurOBP11; ligand concentration 20, replicate 1",21640
same,"Fluorescence intensity, fluorescence competitive binding assay, OBP11","SfurOBP11; ligand concentration 20, replicate 2",22200
same,"Fluorescence intensity, fluorescence competitive binding assay, OBP11","SfurOBP11; ligand concentration 20, replicate 3",21920
same,IC50,SfurOBP2,> 20 µM
same,"Fluorescence competitive binding assay, OBP2 (raw fluorescence reading)","SfurOBP2; ligand concentration 2 (unit not given), replicate column 1 of 3",20302
same,"Fluorescence competitive binding assay, OBP2 (raw fluorescence reading)","SfurOBP2; ligand concentration 2 (unit not given), replicate column 2 of 3",19349
same,"Fluorescence competitive binding assay, OBP2 (raw fluorescence reading)","SfurOBP2; ligand concentration 2 (unit not given), replicate column 3 of 3",19856
same,"Fluorescence competitive binding assay, OBP2 (raw fluorescence reading)","SfurOBP2; ligand concentration 4 (unit not given), replicate column 1 of 3",20922
same,"Fluorescence competitive binding assay, OBP2 (raw fluorescence reading)","SfurOBP2; ligand concentration 4 (unit not given), replicate column 2 of 3",22649
same,"Fluorescence competitive binding assay, OBP2 (raw fluorescence reading)","SfurOBP2; ligand concentration 4 (unit not given), replicate column 3 of 3",23660
same,"Fluorescence competitive binding assay, OBP2 (raw fluorescence reading)","SfurOBP2; ligand concentration 6 (unit not given), replicate column 1 of 3",19982
same,"Fluorescence competitive binding assay, OBP2 (raw fluorescence reading)","SfurOBP2; ligand concentration 6 (unit not given), replicate column 2 of 3",19598
same,"Fluorescence competitive binding assay, OBP2 (raw fluorescence reading)","SfurOBP2; ligand concentration 6 (unit not given), replicate column 3 of 3",20363
same,"Fluorescence competitive binding assay, OBP2 (raw fluorescence reading)","SfurOBP2; ligand concentration 8 (unit not given), replicate column 1 of 3",18016
same,"Fluorescence competitive binding assay, OBP2 (raw fluorescence reading)","SfurOBP2; ligand concentration 8 (unit not given), replicate column 2 of 3",17876
same,"Fluorescence competitive binding assay, OBP2 (raw fluorescence reading)","SfurOBP2; ligand concentration 8 (unit not given), replicate column 3 of 3",18155
same,"Fluorescence competitive binding assay, OBP2 (raw fluorescence reading)","SfurOBP2; ligand concentration 10 (unit not given), replicate column 1 of 3",17866
same,"Fluorescence competitive binding assay, OBP2 (raw fluorescence reading)","SfurOBP2; ligand concentration 10 (unit not given), replicate column 2 of 3",16967
same,"Fluorescence competitive binding assay, OBP2 (raw fluorescence reading)","SfurOBP2; ligand concentration 10 (unit not given), replicate column 3 of 3",17417
same,"Fluorescence competitive binding assay, OBP2 (raw fluorescence reading)","SfurOBP2; ligand concentration 12 (unit not given), replicate column 1 of 3",14659
same,"Fluorescence competitive binding assay, OBP2 (raw fluorescence reading)","SfurOBP2; ligand concentration 12 (unit not given), replicate column 2 of 3",16003
same,"Fluorescence competitive binding assay, OBP2 (raw fluorescence reading)","SfurOBP2; ligand concentration 12 (unit not given), replicate column 3 of 3",15331
same,"Fluorescence competitive binding assay, OBP2 (raw fluorescence reading)","SfurOBP2; ligand concentration 14 (unit not given), replicate column 1 of 3",15808
same,"Fluorescence competitive binding assay, OBP2 (raw fluorescence reading)","SfurOBP2; ligand concentration 14 (unit not given), replicate column 2 of 3",14578
same,"Fluorescence competitive binding assay, OBP2 (raw fluorescence reading)","SfurOBP2; ligand concentration 14 (unit not given), replicate column 3 of 3",16066
same,"Fluorescence competitive binding assay, OBP2 (raw fluorescence reading)","SfurOBP2; ligand concentration 16 (unit not given), replicate column 1 of 3",13829
same,"Fluorescence competitive binding assay, OBP2 (raw fluorescence reading)","SfurOBP2; ligand concentration 16 (unit not given), replicate column 2 of 3",13659
same,"Fluorescence competitive binding assay, OBP2 (raw fluorescence reading)","SfurOBP2; ligand concentration 16 (unit not given), replicate column 3 of 3",13740
same,"Fluorescence competitive binding assay, OBP2 (raw fluorescence reading)","SfurOBP2; ligand concentration 18 (unit not given), replicate column 1 of 3",13696
same,"Fluorescence competitive binding assay, OBP2 (raw fluorescence reading)","SfurOBP2; ligand concentration 18 (unit not given), replicate column 2 of 3",13929
same,"Fluorescence competitive binding assay, OBP2 (raw fluorescence reading)","SfurOBP2; ligand concentration 18 (unit not given), replicate column 3 of 3",14161
same,"Fluorescence competitive binding assay, OBP2 (raw fluorescence reading)","SfurOBP2; ligand concentration 20 (unit not given), replicate column 1 of 3",14205
same,"Fluorescence competitive binding assay, OBP2 (raw fluorescence reading)","SfurOBP2; ligand concentration 20 (unit not given), replicate column 2 of 3",14645
same,"Fluorescence competitive binding assay, OBP2 (raw fluorescence reading)","SfurOBP2; ligand concentration 20 (unit not given), replicate column 3 of 3",13761
same,IC50,SfurOBP3,> 20 µM
same,"Fluorescence competitive binding assay, fluorescence intensity",SfurOBP3; ligand concentration 2,65046 and 56813 and 65508
same,"Fluorescence competitive binding assay, fluorescence intensity",SfurOBP3; ligand concentration 4,67380 and 59779 and 65465
same,"Fluorescence competitive binding assay, fluorescence intensity",SfurOBP3; ligand concentration 6,60647 and 61139 and 65169
same,"Fluorescence competitive binding assay, fluorescence intensity",SfurOBP3; ligand concentration 8,62761 and 59088 and 65223
same,"Fluorescence competitive binding assay, fluorescence intensity",SfurOBP3; ligand concentration 10,58066 and 60267 and 58488
same,"Fluorescence competitive binding assay, fluorescence intensity",SfurOBP3; ligand concentration 12,53979 and 46844 and 52174
same,"Fluorescence competitive binding assay, fluorescence intensity",SfurOBP3; ligand concentration 14,52567 and 46884 and 49119
same,"Fluorescence competitive binding assay, fluorescence intensity",SfurOBP3; ligand concentration 16,43090 and 45767 and 42573
same,"Fluorescence competitive binding assay, fluorescence intensity",SfurOBP3; ligand concentration 18,48410 and 52387 and 52599
same,"Fluorescence competitive binding assay, fluorescence intensity",SfurOBP3; ligand concentration 20,47608 and 41929 and 45047
same,number of insects choosing hexane arm,S. furcifera adults,10
same,number of insects choosing volatilies arm,S. furcifera adults,9
same,number of insects failed (no choice),S. furcifera adults,20
